Laboratory results taken from patent US11214594B2, “Antimicrobial peptide having synergistic antibacterial effect with antibiotics on multidrug resistant bacteria, and use thereof” (priority 2016, dated 2022).
Converted amounts (≈) assume the structure as drawn. Like-named read-outs stand apart in the source and are kept apart here. Where a SMILES comes first, the peptide text is derived from it.

Experiments:
[1] = test system: E. coli; assay: microbe, parasite or virus in culture; assay type: cell-based, Escherichia coli; details: 16 h
Outline: (§1)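 Broth microdilution in MH medium: strains diluted to 2×10^6 CFU were mixed with equal volumes of twofold serial peptide dilutions in MH medium. MIC was taken as the lowest peptide concentration preventing bacterial growth.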

[2] = test system: MDREC 1229; assay: microbe, parasite or virus in culture; assay type: cell-based, Escherichia coli
Outline: as §1

[3] = test system: MDREC 1238; assay type: cell-based, Escherichia coli
Outline: as §1

[4] = test system: P. aeruginosa; assay: microbe, parasite or virus in culture; assay type: cell-based, Pseudomonas aeruginosa
Outline: as §1

[5] = test system: MDRPA 2002; assay type: cell-based, Pseudomonas aeruginosa
Outline: as §1

[6] = test system: MDRPA 2003; assay type: cell-based, Pseudomonas aeruginosa
Outline: as §1

[7] = test system: MDRAB 12036; assay type: cell-based, Acinetobacter baumannii
Outline: as §1

[8] = test system: MDRST 8007; assay: Minimal inhibitory concentration (MIC), single agent; assay type: cell-based, Salmonella typhimurium; details: agent alone
Outline: as §1

[9] = test system: MDRST 8009; assay type: cell-based, Salmonella typhimurium; details: agent alone
Outline: as §1

[10] = test system: B. subtilis; assay: microbe, parasite or virus in culture; assay type: cell-based, Bacillus subtilis
Outline: as §1

[11] = test system: S. epidermidis; assay: microbe, parasite or virus in culture; assay type: cell-based, Staphylococcus epidermidis
Outline: as §1

[12] = test system: MRSA 3114; assay type: cell-based, Staphylococcus aureus; details: 3114
Outline: as §1

[13] = test system: MRSA 3126; assay type: cell-based, Staphylococcus aureus; details: 3126
Outline: as §1

[14] = test system: E. coli; assay: MIC of antibiotic during combined treatment with antimicrobial peptide; assay type: cell-based, Escherichia coli; details: for Antibiotic MIC, Erythromycin / Antibiotic MIC, Linezolid / Antibiotic MIC, Vancomycin: E. coli
Outline: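 MIC values for mixed peptide plus antibiotic solutions were measured in MH medium.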

[15] = test system: MDRAB 12035; assay: as above; assay type: cell-based, Acinetobacter baumannii
Outline: (§2)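 Antibiotic MIC came from antibiotic dilutions added to bacteria (2×10^6 CFU/ml, MH medium) already combined with peptide serially diluted 2:1 from its own MIC. Swapping the roles of the two agents gave the peptide MIC.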

[16] = test system: E. coli; assay type: cell-based, Escherichia coli; details: E. coli
Outline: as §2

[17] = test system: MDREC 1229; assay type: cell-based, Escherichia coli
Outline: as §2

[18] = test system: A. baumannii; assay: MIC of antimicrobial peptide during combined treatment with antibiotic; assay type: cell-based, Acinetobacter baumannii
Outline: as §2

[19] = test system: MDRAB 12035; assay: as above; assay type: cell-based, Acinetobacter baumannii
Outline: as §2

[20] = peptide treatment concentration 1 μg/ml
[21] = peptide treatment concentration 2 μg/ml
[22] = peptide treatment concentration 4 μg/ml
[23] = peptide treatment concentration 6 μg/ml
[24] = peptide treatment concentration 8 μg/ml
[25] = peptide treatment concentration 16 μg/ml
[26] = peptide treatment concentration 32 μg/ml
[27] = peptide treatment concentration 64 μg/ml
[28] = linezolid 64 μg/ml (Conc./MIC 1/8)
[29] = linezolid 512 μg/ml (Conc./MIC 1)
[30] = vancomycin 512 μg/ml (Conc./MIC 1/2)
[31] = vancomycin 1024 μg/ml (Conc./MIC 1)
[32] = erythromycin 4 μg/ml (Conc./MIC 1/8)
[33] = erythromycin 8 μg/ml (Conc./MIC 1/4)
[34] = erythromycin 16 μg/ml (Conc./MIC 1/2)
[35] = erythromycin 32 μg/ml (Conc./MIC 1)

Q: What does the source list for `CC[C@H](C)[C@H](NC(=O)[C@H](CCCCN)NC(=O)[C@H](Cc1c[nH]c2ccccc12)NC(=O)[C@@H](N)CCCNC(=N)N)C(=O)N[C@@H](Cc1ccccc1)C(=O)N[C@@H](CCCCN)C(=O)N[C@@H](CCCCN)C(=O)N[C@H](C(=O)N1CCC[C@H]1C(=O)N[C@@H](CCCCN)C(=O)N[C@@H](Cc1ccccc1)C(=O)N[C@@H](CC(C)C)C(=O)N[C@@H](Cc1c[nH]cn1)C(=O)N[C@@H](CCC(=O)O)C(=O)N[C@@H](C)C(=O)N[C@@H](CCCCN)C(=O)N[C@@H](CCCCN)C(=O)N[C@@H](Cc1c[nH]c2ccccc12)C(N)=O)[C@@H](C)CC` [PapMA-14, RWK IFK KIP KFL HEA KKW-NH2] (H-RWKIFKKIPKFLHEAKKW-NH2; N-terminus assumed)?
A: Minimal inhibitory concentration MIC [1]: 8 µg/mL (≈ 3.36 µM); Minimal inhibitory concentration MIC [2]: 16 µg/mL (≈ 6.71 µM); Peptide MIC, peptide alone [2]: 16 µg/mL; Minimal inhibitory concentration MIC [3]: 16 µg/mL (≈ 6.71 µM); Minimal inhibitory concentration MIC [4]: 64 µg/mL (≈ 26.9 µM); Minimal inhibitory concentration MIC [5]: 64 µg/mL (≈ 26.9 µM); Minimal inhibitory concentration MIC [6]: 64 µg/mL (≈ 26.9 µM); Minimal inhibitory concentration MIC [7]: 16 µg/mL (≈ 6.71 µM); Minimal inhibitory concentration MIC [8]: 16 µg/mL (≈ 6.71 µM); Minimal inhibitory concentration MIC [9]: 32 µg/mL (≈ 13.4 µM); Minimal inhibitory concentration MIC [10]: >128 µg/mL; Minimal inhibitory concentration MIC [11]: >128 µg/mL; Minimal inhibitory concentration MIC [12]: >128 µg/mL; Minimal inhibitory concentration MIC [13]: >128 µg/mL; Synergistic effect of antibacterial activity with existing antibiotics compared with PapMA-1 ([14]; E. coli and MDREC1229): higher level than the PapMA-1 peptide; Antibiotic MIC, Erythromycin ([14]; erythromycin combined with peptide at 1 μg/ml): 128 µg/mL; Antibiotic MIC, Erythromycin ([14]; erythromycin combined with peptide at 2 μg/ml): 32 µg/mL; Antibiotic MIC, Erythromycin ([14]; erythromycin combined with peptide at 4 μg/ml): 2 µg/mL; Antibiotic MIC, Erythromycin ([14]; erythromycin combined with peptide at 6 μg/ml): 1 µg/mL; Antibiotic MIC, Erythromycin ([14]; erythromycin combined with peptide at 8 μg/ml): 0 µg/mL; Antibiotic MIC, Erythromycin ([14]; erythromycin combined with peptide at 16 μg/ml): 0 µg/mL; Antibiotic MIC, Erythromycin ([14]; erythromycin combined with peptide at 32 μg/ml): 0 µg/mL; Antibiotic MIC, Erythromycin ([14]; erythromycin combined with peptide at 64 μg/ml): 0 µg/mL; Antibiotic MIC, Linezolid ([14]; linezolid combined with peptide at 1 μg/ml): >128 µg/mL; Antibiotic MIC, Linezolid ([14]; linezolid combined with peptide at 2 μg/ml): 128 µg/mL; Antibiotic MIC, Linezolid ([14]; linezolid combined with peptide at 4 μg/ml): 8 µg/mL; Antibiotic MIC, Linezolid ([14]; linezolid combined with peptide at 6 μg/ml): 2 µg/mL; Antibiotic MIC, Linezolid ([14]; linezolid combined with peptide at 8 μg/ml): 0 µg/mL; Antibiotic MIC, Linezolid ([14]; linezolid combined with peptide at 16 μg/ml): 0 µg/mL; Antibiotic MIC, Linezolid ([14]; linezolid combined with peptide at 32 μg/ml): 0 µg/mL; Antibiotic MIC, Linezolid ([14]; linezolid combined with peptide at 64 μg/ml): 0 µg/mL; Antibiotic MIC, Vancomycin ([14]; vancomycin combined with peptide at 1 μg/ml): >128 µg/mL; Antibiotic MIC, Vancomycin ([14]; vancomycin combined with peptide at 2 μg/ml): 128 µg/mL; Antibiotic MIC, Vancomycin ([14]; vancomycin combined with peptide at 4 μg/ml): 16 µg/mL; Antibiotic MIC, Vancomycin ([14]; vancomycin combined with peptide at 6 μg/ml): 8 µg/mL; Antibiotic MIC, Vancomycin ([14]; vancomycin combined with peptide at 8 μg/ml): 0 µg/mL; Antibiotic MIC, Vancomycin ([14]; vancomycin combined with peptide at 16 μg/ml): 0 µg/mL; Antibiotic MIC, Vancomycin ([14]; vancomycin combined with peptide at 32 μg/ml): 0 µg/mL; Antibiotic MIC, Vancomycin ([14]; vancomycin combined with peptide at 64 μg/ml): 0 µg/mL; Erythromycin MIC during combined treatment with peptide [15, 20]: 16 µg/mL; Linezolid MIC during combined treatment with peptide [15, 20]: 128 µg/mL; Vancomycin MIC during combined treatment with peptide [15, 20]: >128 µg/mL; Erythromycin MIC during combined treatment with peptide [15, 21]: 8 µg/mL; Linezolid MIC during combined treatment with peptide [15, 21]: 64 µg/mL; Vancomycin MIC during combined treatment with peptide [15, 21]: 64 µg/mL; Erythromycin MIC during combined treatment with peptide [15, 22]: 4 µg/mL; Linezolid MIC during combined treatment with peptide [15, 22]: 16 µg/mL; Vancomycin MIC during combined treatment with peptide [15, 22]: 16 µg/mL; Erythromycin MIC during combined treatment with peptide [15, 23]: 1 µg/mL; Linezolid MIC during combined treatment with peptide [15, 23]: 4 µg/mL; Vancomycin MIC during combined treatment with peptide [15, 23]: 4 µg/mL; Erythromycin MIC during combined treatment with peptide [15, 24]: 0.5 µg/mL; Linezolid MIC during combined treatment with peptide [15, 24]: 1 µg/mL; Vancomycin MIC during combined treatment with peptide [15, 24]: 1 µg/mL; Erythromycin MIC during combined treatment with peptide [15, 25]: 0 µg/mL; Linezolid MIC during combined treatment with peptide [15, 25]: 0 µg/mL; Vancomycin MIC during combined treatment with peptide [15, 25]: 0 µg/mL; Erythromycin MIC during combined treatment with peptide [15, 26]: 0 µg/mL; Linezolid MIC during combined treatment with peptide [15, 26]: 0 µg/mL; Vancomycin MIC during combined treatment with peptide [15, 26]: 0 µg/mL; Erythromycin MIC during combined treatment with peptide [15, 27]: 0 µg/mL; Linezolid MIC during combined treatment with peptide [15, 27]: 0 µg/mL; Vancomycin MIC during combined treatment with peptide [15, 27]: 0 µg/mL; Peptide MIC ([16]; with Erythromycin […] (Conc./MIC 1)): 0 µg/mL; Peptide MIC ([16]; with Linezolid […] (Conc./MIC 1)): 0 µg/mL; Peptide MIC ([16]; with Vancomycin 1024 μg/ml (Conc./MIC 1)): 0 µg/mL; Peptide MIC during treatment with antibiotic ([17]; erythromycin 32 μg/ml (Conc./MIC 1/8)): 2 µg/mL; Peptide MIC during treatment with antibiotic ([17]; erythromycin 64 μg/ml (Conc./MIC 1/4)): 2 µg/mL; Peptide MIC during treatment with antibiotic ([17]; erythromycin […] (Conc./MIC 1)): 0 µg/mL; Peptide MIC during treatment with antibiotic ([17]; erythromycin […] (Conc./MIC 1/2)): 1 µg/mL; Peptide MIC during treatment with antibiotic [17, 28]: 4 µg/mL; Peptide MIC during treatment with antibiotic [17, 29]: 0 µg/mL; Peptide MIC during treatment with antibiotic ([17]; linezolid […] (Conc./MIC 1/2)): 1 µg/mL; Peptide MIC during treatment with antibiotic ([17]; linezolid […] (Conc./MIC 1/4)): 2 µg/mL; Peptide MIC during treatment with antibiotic [17, 30]: 2 µg/mL; Peptide MIC during treatment with antibiotic [17, 31]: 1 µg/mL; Peptide MIC during treatment with antibiotic ([17]; vancomycin […] (Conc./MIC 1/4)): 4 µg/mL; Peptide MIC during treatment with antibiotic ([17]; vancomycin […] (Conc./MIC 1/8)): 4 µg/mL; Peptide MIC during treatment with antibiotic [18, 32]: 4 µg/mL; Peptide MIC during treatment with antibiotic [18, 33]: 2 µg/mL; Peptide MIC during treatment with antibiotic [18, 34]: 1 µg/mL; Peptide MIC during treatment with antibiotic [18, 35]: 0 µg/mL; Peptide MIC during treatment with antibiotic ([18]; linezolid 32 μg/ml (Conc./MIC 1/8)): 2 µg/mL; Peptide MIC during treatment with antibiotic ([18]; linezolid 64 μg/ml (Conc./MIC 1/4)): 2 µg/mL; Peptide MIC during treatment with antibiotic ([18]; linezolid […] (Conc./MIC 1)): 0 µg/mL; Peptide MIC during treatment with antibiotic ([18]; linezolid […] (Conc./MIC 1/2)): 1 µg/mL; Peptide MIC during treatment with antibiotic [18, 30]: 0.25 µg/mL; Peptide MIC during treatment with antibiotic [18, 31]: 0 µg/mL; Peptide MIC during treatment with antibiotic ([18]; vancomycin […] (Conc./MIC 1/4)): 0.5 µg/mL; Peptide MIC during treatment with antibiotic ([18]; vancomycin […] (Conc./MIC 1/8)): 2 µg/mL; Peptide MIC during treatment with erythromycin [19, 32]: 4 µg/mL; Peptide MIC during treatment with erythromycin [19, 33]: 2 µg/mL; Peptide MIC during treatment with erythromycin [19, 34]: 1 µg/mL; Peptide MIC during treatment with erythromycin [19, 35]: 0 µg/mL; Peptide MIC during treatment with linezolid [19, 28]: 2 µg/mL; Peptide MIC during treatment with linezolid [19, 29]: 0 µg/mL; Peptide MIC during treatment with linezolid ([19]; linezolid […] (Conc./MIC 1/2)): 1 µg/mL; Peptide MIC during treatment with linezolid ([19]; linezolid […] (Conc./MIC 1/4)): 1 µg/mL; Peptide MIC during treatment with vancomycin [19, 30]: 1 µg/mL; Peptide MIC during treatment with vancomycin [19, 31]: 1 µg/mL; Peptide MIC during treatment with vancomycin ([19]; vancomycin […] (Conc./MIC 1/4)): 2 µg/mL; Peptide MIC during treatment with vancomycin ([19]; vancomycin […] (Conc./MIC 1/8)): 2 µg/mL
